Measurements: paper PMC4497560 (Bioorganic & medicinal chemistry letters, 2014)

Assays:
Format in all cases: biochemical
[1] = molecular target: T1, lymphoid tyrosine phosphatase (LYP) (Homo sapiens, UniProt Q9Y2R2); assay: LYP enzymatic activity assay, chelator fragments with and without zinc acetate; settings: for Time dependence of LYP inhibition: incubation 0, 30, 60, 120 min; for Effect on LYP enzymatic activity alone: chelator alone, no added zinc; for Chelator concentration sufficient to restore LYP activity: two equiv
T1 sequence (Q9Y2R2 24-289 limits assumed): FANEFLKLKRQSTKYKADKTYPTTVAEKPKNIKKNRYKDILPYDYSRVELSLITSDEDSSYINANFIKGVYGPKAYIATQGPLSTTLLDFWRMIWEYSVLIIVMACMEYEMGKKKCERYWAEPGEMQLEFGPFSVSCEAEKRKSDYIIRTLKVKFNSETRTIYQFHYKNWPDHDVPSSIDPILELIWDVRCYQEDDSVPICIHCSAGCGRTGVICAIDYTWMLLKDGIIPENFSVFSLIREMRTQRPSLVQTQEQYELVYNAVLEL

PTP1B = assay: Inhibition of PTP1B by compound 1h; settings: Figure 6
CD45 = assay: Inhibition of CD45 by compound 1h; settings: Figure 6
YopH = test system: YopH
[2] = in the presence of 40 μM zinc acetate

In the case of CC(=O)[O-].CC(=O)[O-].[Zn+2] [zinc acetate, reference compound], the “Inhibition of LYP” value ([1]; 100 μM zinc(II) acetate, standard assay conditions) is reported as “complete inhibition”, the “LYP activity, % of the control” value ([1]; at 5 μM zinc acetate) is reported as 80% and the “LYP activity, % of the control” value [1, 2] is reported as 20%.

O=C1C=C(O)C(=O)c2ccccc21 [Compound 5g, 2-hydroxy-1,4-naphthoquinone] was tested, and the “Inhibition of LYP in the presence of zinc” value ([1]; 5 μM zinc acetate, follow-up studies) was “consistent concentration-dependent inhibition”, the “Inhibition of LYP at the initial time point” value ([1]; absence of zinc, 0 min incubation) was “essentially no inhibition” and the “Combined effect with zinc on LYP inhibition” value ([1]; in the presence of zinc (Figure S2)) was “additive effect”. The “Time dependence of LYP inhibition” value [1] was “time- dependent inhibition”.

For O=C1C=Cc2ccccc2C1=O [1,2-naphthoquinone, reference compound], the “Time dependence of LYP inhibition” value [1] was “time-dependent manner”.

With Oc1ccc2ccccc2c1O [Compound 1h, 1,2-dihydroxynaphthalene] the “Selectivity for LYP over PTP1B” value (PTP1B) was “modest selectivity”, the “Selectivity for LYP over CD45” value (CD45) was “modest selectivity” and the “Selectivity for LYP over YopH” value (YopH) was “modest selectivity”. For the same molecule, the “Time dependence of LYP inhibition” value [1] was “time-dependent inhibitor”.

With c1ccc(CNCc2ccccn2)nc1 [Compound 3g, di-(2-picolyl)-amine] the “Effect on LYP enzymatic activity alone” value [1] was “little effect”, the “Rescue of LYP from zinc-mediated inhibition” value [1, 2] was “capable of rescuing the enzyme from zinc-mediated inhibition” and the “Chelator concentration sufficient to restore LYP activity” value [1, 2] was 80 µM.

With O=C(O)c1cccc(C(=O)O)n1 [Compound 8a, 2,6-pyridine dicarboxylic acid] the “Effect on LYP enzymatic activity alone” value [1] was “little effect”, the “Chelator equivalents (relative to zinc) required to restore LYP activity” value [1, 2] was “slightly more than two equiv” and the “Rescue of LYP from zinc-mediated inhibition” value [1, 2] was “capable of rescuing the enzyme from zinc-mediated inhibition”.

With Oc1ccc(Cl)c2cccnc12 [Compound 12b, 5-chloro-8-quinolol] the “Effect on LYP enzymatic activity alone” value [1] was “little effect”, the “Rescue of LYP from zinc-mediated inhibition” value [1, 2] was “capable of rescuing the enzyme from zinc-mediated inhibition” and the “Chelator concentration sufficient to restore LYP activity” value [1, 2] was 80 µM.
